# Assay results: PubChem BioAssay AID602275 (The Scripps Research Institute Molecular Screening Center, 2012)
# Calls of active or inactive are those of the source. The rule behind the calls is not given here.
# Columns and labels:
# NS3h 2a[JFH1] = assay: NS3h unwinding inhibitors, genotype 1b and 2a – biochemical, real-time fluorescence, strains con1 and JFH1, set 3, selectivity assay for HCV NS3 helicase inhibitor project, late-stage follow-up (AID 602275); settings: Recombinant NS3h
# NS3h 1b[con1] = assay: as above; settings: Recombinant NS3h
IC50 (NS3h 2a[JFH1]),IC50 (NS3h 1b[con1]),outcome (NS3h 2a[JFH1]),outcome (NS3h 1b[con1]),Compound
5.8 µM,5.4 µM,,,Cc1ccc2nc(-c3ccc4nc(-c5ccc(NC(=O)c6ccc(NC(=O)OCC7c8ccccc8-c8ccccc87)cc6)cc5)sc4c3)sc2c1S(=O)(=O)O
2.3 µM,3.4 µM,,,Cc1ccc2nc(-c3ccc4nc(-c5ccc(NC(=O)c6ccc(Cl)cc6)cc5)sc4c3)sc2c1S(=O)(=O)O
13.5 µM,14.4 µM,,,Cc1ccc2nc(-c3ccc4nc(-c5ccc(N(C)C(=O)c6ccc7ccccc7c6)cc5)sc4c3)sc2c1S(=O)(=O)O
13 µM,17.4 µM,,,Cc1ccc2nc(-c3ccc4nc(-c5ccc(NC(=O)c6ccc(C(F)(F)F)c(F)c6)cc5)sc4c3)sc2c1S(=O)(=O)O
32.1 µM,43.8 µM,,,Cc1ccc2nc(-c3ccc(NC(=O)c4ccc(NC(=O)Nc5ccccc5)cc4)cc3)sc2c1S(=O)(=O)O
,,inactive,inactive,O=C(Nc1nc2ccc(Br)cc2s1)c1ccc2ncsc2c1
15.8 µM,28.4 µM,,,Cc1ccc2nc(-c3ccc4nc(-c5ccc(NC(=O)c6cc(F)cc(C(F)(F)F)c6)cc5)sc4c3)sc2c1S(=O)(=O)O
25.3 µM,27.5 µM,,,COc1cccc2c(=O)c3cc(Cl)cc(C(=O)Nc4cc(Cl)ccn4)c3[nH]c12
35 µM,32 µM,,,Cc1ccc2nc(-c3ccc4nc(-c5ccc(NS(=O)(=O)c6ccc(C(F)(F)F)cc6)cc5)sc4c3)sc2c1S(=O)(=O)O
4.7 µM,7.5 µM,,,O=C(CCCCCCC(=O)Nc1ccc(-c2nc3ccccc3[nH]2)cc1)Nc1ccc(-c2nc3ccccc3[nH]2)cc1
3.9 µM,7 µM,,,Cc1cc2sc(-c3ccc4nc(-c5ccc(N)cc5)sc4c3)nc2cc1S(=O)(=O)O
5 µM,8.2 µM,,,Cc1ccc2nc(-c3ccc4nc(-c5ccc(NC(=O)c6ccc(C(C)(C)C)cc6)cc5)sc4c3)sc2c1S(=O)(=O)O
11.5 µM,11.8 µM,,,Cc1ccc2nc(-c3ccc(NC(=O)c4ccc(NC(=O)OCC5c6ccccc6-c6ccccc65)cc4)cc3)sc2c1S(=O)(=O)O
6.7 µM,6.4 µM,,,Cc1ccc2nc(-c3ccc4nc(-c5ccc(NC(=O)c6cc(C(F)(F)F)ccc6F)cc5)sc4c3)sc2c1S(=O)(=O)O
3.9 µM,4.5 µM,,,Cc1ccc2nc(-c3ccc4nc(-c5ccc(NC(=O)c6cccc7ccccc67)cc5)sc4c3)sc2c1S(=O)(=O)O
,,inactive,inactive,Cc1ccc2nc(-c3ccc(NC(=O)c4ccc(NS(=O)(=O)c5ccccc5)cc4)cc3)sc2c1S(=O)(=O)O
4 µM,5.1 µM,,,Cc1ccc2nc(-c3ccc4nc(-c5ccc(NC(=O)Nc6ccc(C(F)(F)F)cc6)cc5)sc4c3)sc2c1S(=O)(=O)O
5.3 µM,10.3 µM,,,Cc1ccc2nc(-c3ccc4nc(-c5ccc(NC(=O)c6ccc(N)cc6)cc5)sc4c3)sc2c1S(=O)(=O)O
1.9 µM,2.5 µM,,,Cc1ccc2nc(-c3ccc(NC(=O)c4ccc(NC(=O)c5ccc(NC(=O)OCC6c7ccccc7-c7ccccc76)cc5)cc4)cc3)sc2c1S(=O)(=O)O
3.2 µM,5.5 µM,,,Cc1ccc2nc(-c3ccc4nc(-c5ccc(NC(=O)c6ccc7nc(-c8ccc(N)cc8)sc7c6)cc5)sc4c3)sc2c1S(=O)(=O)O
24.3 µM,25.2 µM,,,O=C(Nc1ccc(-c2nc3ccccc3[nH]2)cc1)c1ccc2ncsc2c1
2.3 µM,1.8 µM,,,Cc1ccc2nc(-c3ccc4nc(-c5ccc(NC(=O)c6ccc(C(F)(F)F)cc6)cc5)sc4c3)sc2c1S(=O)(=O)O
21.3 µM,26.8 µM,,,CS(=O)(=O)c1ccc2nc(NC(=O)c3ccc4ncsc4c3)sc2c1
inactive,,,inactive,CCOc1ccc2nc(NC(=O)c3ccc4ncsc4c3)sc2c1
5.4 µM,10 µM,,,COc1ccc(C(=O)Nc2ccc(-c3nc4ccc(-c5nc6ccc(C)c(S(=O)(=O)O)c6s5)cc4s3)cc2)cc1
15.6 µM,23.8 µM,,,Cc1ccc2c(sc(-c3ccc4c(c3)sc(-c3ccc5c(c3)sc(-c3ccc(N(C)C)cc3)[n+]5C)[n+]4C)[n+]2C)c1S(=O)(=O)O (tested in a mixture with another compound)
inactive,inactive,,,Cc1ccc2nc(-c3ccc(NC(=O)c4ccc(N)cc4)cc3)sc2c1S(=O)(=O)O
